Results reported in ChEMBL document CHEMBL6115029, “Discovery of Daraxonrasib (RMC-6236), a Potent and Orally Bioavailable RAS(ON) Multi-selective, Noncovalent Tri-complex Inhibitor for the Treatment of Patients with Multiple RAS-Addicted Cancers” (J Med Chem, 2025).
The source made the active and inactive calls. No cut-off for these calls is given here.

What was measured:
HPAF-II = test: Antitumor activity against human HPAF-II cells harboring wildtype KRAS/KRAS G12D mutant xenografted in female BALB/c mouse model assessed as reduction in tumor volume administered orally as once daily dose for 28 days; format: functional, cell-based; settings: dose 3-25 mg/kg, route po, time 28.0 day
[1] = Oral bioavailability in female BALB/c mouse plasma at 10 mg/kg measured after 24 hrs by LC-MS/MS analysis; format: ADME, organism-based
[2] = Toxicity in female BALB/c nude mouse xenografted with human NCI-H1373 cells harboring KRAS G12C/KRAS G12C mutant assessed as effect on body weight at 25 mg/kg, po administered once daily for 28 days; format: organism-based; settings: in vivo, 672 h, time 28 day
[3] = In vivo inhibition of MAPK signaling pathway in female BALB/c nude mouse xenografted with human MIA PaCa-2 cells harboring KRAS G12C/G12C mutant assessed as reduction in DUSP6 mRNA level in tumor at 10 mg/kg, po administered as single dose and measured after 8 hrs by qPCR analysis relative to control; format: functional
PSN1 = test: Cytotoxicity against human PSN1 cells harboring KRAS G12R mutant cultured as 2D cells assessed as inhibition of cell proliferation incubated for 120 hrs by CellTiter-Glo luminescence assay; format: functional, cell-based
[4] = Oral bioavailability in male Sprague-Dawley rat at 60 mg/kg measured after 24 hrs by LC-MS/MS analysis; format: ADME, organism-based; settings: in vivo
[5] = Genotoxicity in Salmonella typhimurium by Ames test; format: toxicity; settings: salmonella enterica subsp. enterica serovar typhimurium
[6] = Toxicity in female BALB/c nude mouse xenografted with human MIA PaCa-2 cells harboring KRAS G12C/G12C mutant assessed as effect on body weight at 25 mg/kg, po administered once daily for 28 days; format: organism-based; settings: in vivo, 672 h, time 28 day
SK-MEL-30 [7] = test: Cytotoxicity against human SK-MEL-30 cells harboring […] mutant cultured as 2D cells assessed as inhibition of cell proliferation incubated for 120 hrs by CellTiter-Glo luminescence assay; format: functional, cell-based
[8] = Clearance in female BALB/c mouse plasma at 1 mg/kg, iv measured after 24 hrs by LC-MS/MS analysis; format: ADME, organism-based
HCT-116 [9] = test: Inhibition of ERK1/2 phosphorylation in human HCT-116 cells harboring KRAS G13D mutant incubated for 4 hrs by AlphaLISA assay; format: cell-based
[10] = Half-life in female BALB/c mouse at 1 mg/kg, iv measured after 24 hrs by LC-MS/MS analysis; format: ADME, organism-based; settings: in vivo
[11] = Toxicity in female BALB/c nude mouse xenografted with human HPAF-II cells harboring wildtype KRAS/KRAS G12D mutant assessed as effect on body weight at 25 mg/kg, po administered once daily for 28 days; format: organism-based; settings: in vivo, 672 h, time 28 day
[12] = Toxicity in female BALB/c nude mouse xenografted with human NCI-H441 cells harboring wildtype KRAS/KRAS G12V mutant assessed as effect on body weight at 25 mg/kg, po administered once daily for 28 days; format: organism-based; settings: in vivo, 672 h, time 28 day
[13] = Tmax in male Sprague-Dawley rat at 60 mg/kg, po measured after 24 hrs by LC-MS/MS analysis; format: ADME, organism-based; settings: in vivo
[14] = Half-life in male Beagle dog at 5 mg/kg, po measured after 24 hrs by LC-MS/MS analysis; format: ADME, organism-based, Canis lupus familiaris; settings: in vivo
NCI-H358 = test: Cytotoxicity against human NCI-H358 cells harboring KRAS G12C mutant cultured as 2D cells assessed as reduction in cell viability incubated for 120 hrs by CellTiter-Glo luminescence assay; format: functional, cell-based; settings: NCI-H358, 120 h
Mus musculus [15] = test: In vivo inhibition of MAPK signaling pathway in female BALB/c nude mouse xenografted with human MIA PaCa-2 cells harboring KRAS G12C/G12C mutant assessed as reduction in DUSP6 mRNA level in tumor at 25 mg/kg, po administered as single dose and measured upto 48 hrs by qPCR analysis; format: functional, organism-based
[16] = Inhibition of ERK1/2 phosphorylation in human CAPAN-1 cells harboring KRAS G12V mutant incubated for 4 hrs by AlphaLISA assay; format: cell-based; settings: CAPAN-1, 4 h
[17] = Toxicity in human PBL cells in presence of rat S9 fraction by micronucleus assay; format: subcellular
SK-MEL-30 [18] = test: Inhibition of ERK1/2 phosphorylation in human SK-MEL-30 cells harboring […] mutant incubated for 4 hrs by AlphaLISA assay; format: cell-based
[19] = molecular target: Voltage-dependent L-type calcium channel subunit alpha-1C (Homo sapiens, UniProt Q13936); test: Inhibition of human Cav1.2; format: toxicity
Voltage-dependent L-type calcium channel subunit alpha-1C, sequence (Q13936 whole entry): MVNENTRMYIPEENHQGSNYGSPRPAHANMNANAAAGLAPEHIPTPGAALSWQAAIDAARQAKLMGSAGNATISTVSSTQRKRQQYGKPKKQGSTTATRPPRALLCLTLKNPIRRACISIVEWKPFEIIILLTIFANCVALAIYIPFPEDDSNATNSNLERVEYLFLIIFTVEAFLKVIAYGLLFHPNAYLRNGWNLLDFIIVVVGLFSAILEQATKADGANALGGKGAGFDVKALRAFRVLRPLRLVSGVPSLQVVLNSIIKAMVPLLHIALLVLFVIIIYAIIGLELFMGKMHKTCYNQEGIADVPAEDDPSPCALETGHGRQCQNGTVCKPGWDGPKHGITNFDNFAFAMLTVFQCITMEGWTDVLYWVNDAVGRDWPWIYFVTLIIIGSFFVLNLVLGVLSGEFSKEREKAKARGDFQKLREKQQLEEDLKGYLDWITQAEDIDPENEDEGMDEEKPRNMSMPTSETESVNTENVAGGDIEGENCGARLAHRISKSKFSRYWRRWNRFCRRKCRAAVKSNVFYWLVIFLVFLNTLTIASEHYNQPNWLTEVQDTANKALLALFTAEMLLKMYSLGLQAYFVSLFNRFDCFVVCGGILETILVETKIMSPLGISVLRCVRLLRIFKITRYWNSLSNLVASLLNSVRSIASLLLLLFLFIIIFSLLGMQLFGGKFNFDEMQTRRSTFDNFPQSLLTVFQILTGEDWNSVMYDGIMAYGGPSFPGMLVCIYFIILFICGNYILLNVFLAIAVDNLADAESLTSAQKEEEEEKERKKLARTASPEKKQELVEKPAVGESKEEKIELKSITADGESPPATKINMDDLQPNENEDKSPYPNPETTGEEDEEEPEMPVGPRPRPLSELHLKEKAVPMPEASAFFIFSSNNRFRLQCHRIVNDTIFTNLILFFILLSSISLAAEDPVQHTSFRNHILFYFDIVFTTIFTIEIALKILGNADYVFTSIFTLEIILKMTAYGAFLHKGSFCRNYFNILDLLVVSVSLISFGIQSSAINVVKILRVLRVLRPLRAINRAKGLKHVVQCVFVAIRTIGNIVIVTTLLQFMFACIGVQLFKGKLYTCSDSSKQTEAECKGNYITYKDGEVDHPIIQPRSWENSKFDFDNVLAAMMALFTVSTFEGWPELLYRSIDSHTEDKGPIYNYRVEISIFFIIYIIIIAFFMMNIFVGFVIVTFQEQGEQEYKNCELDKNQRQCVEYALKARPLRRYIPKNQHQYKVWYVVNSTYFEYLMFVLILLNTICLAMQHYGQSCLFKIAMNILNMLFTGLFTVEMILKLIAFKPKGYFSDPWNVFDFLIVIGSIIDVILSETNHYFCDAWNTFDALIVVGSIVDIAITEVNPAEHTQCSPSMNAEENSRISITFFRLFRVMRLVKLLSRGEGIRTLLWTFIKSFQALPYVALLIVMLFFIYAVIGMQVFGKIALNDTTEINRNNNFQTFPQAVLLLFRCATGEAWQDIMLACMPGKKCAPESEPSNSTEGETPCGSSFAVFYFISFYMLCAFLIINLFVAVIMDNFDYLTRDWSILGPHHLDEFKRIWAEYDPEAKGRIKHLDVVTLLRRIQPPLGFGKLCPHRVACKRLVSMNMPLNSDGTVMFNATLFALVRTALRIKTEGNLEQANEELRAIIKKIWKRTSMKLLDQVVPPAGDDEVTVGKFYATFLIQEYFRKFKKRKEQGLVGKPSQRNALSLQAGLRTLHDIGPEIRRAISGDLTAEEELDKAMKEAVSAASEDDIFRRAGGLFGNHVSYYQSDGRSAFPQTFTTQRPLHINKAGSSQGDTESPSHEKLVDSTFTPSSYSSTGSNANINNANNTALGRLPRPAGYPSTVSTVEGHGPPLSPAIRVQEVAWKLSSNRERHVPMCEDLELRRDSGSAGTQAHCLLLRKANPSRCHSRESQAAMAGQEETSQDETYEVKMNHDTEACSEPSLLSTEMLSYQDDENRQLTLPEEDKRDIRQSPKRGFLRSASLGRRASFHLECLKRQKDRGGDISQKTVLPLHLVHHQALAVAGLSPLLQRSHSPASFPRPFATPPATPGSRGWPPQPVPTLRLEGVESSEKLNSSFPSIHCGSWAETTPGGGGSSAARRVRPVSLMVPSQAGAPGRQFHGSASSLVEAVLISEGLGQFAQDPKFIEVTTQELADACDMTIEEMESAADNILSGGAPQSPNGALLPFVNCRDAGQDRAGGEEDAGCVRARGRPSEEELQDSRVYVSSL

[20] = In vivo inhibition of MAPK signaling pathway in female BALB/c nude mouse xenografted with human MIA PaCa-2 cells harboring KRAS G12C/G12C mutant assessed as reduction in DUSP6 mRNA level in tumor at 3 mg/kg, po administered as single dose and measured after 8 hrs by qPCR analysis relative to control; format: functional
[21] = Lipophilicity, logD of compound at pH 7.4 by Agilent 1290 II uPLC analysis; format: physicochemical; settings: buffer
[22] = Mutagenicity in Salmonella typhimurium by Ames test; format: toxicity; settings: salmonella enterica subsp. enterica serovar typhimurium
NCI-H441 = test: Cytotoxicity against human NCI-H441 cells harboring KRAS G12V mutant cultured as 2D cells assessed as inhibition of cell proliferation incubated for 120 hrs by CellTiter-Glo luminescence assay; format: functional, cell-based
[23] = Volume of distribution at steady state in male Sprague-Dawley rat at 1 mg/kg, iv measured after 24 hrs by LC-MS/MS analysis; format: ADME, organism-based; settings: in vivo, read-out: Vdss
[24] = Half-life in male Sprague-Dawley rat at 1 mg/kg, iv measured after 24 hrs by LC-MS/MS analysis; format: ADME, organism-based; settings: in vivo
[25] = Clearance in male cynomolgus monkey at 1 mg/kg, iv measured after 24 hrs by LC-MS/MS analysis; format: ADME, organism-based, Macaca fascicularis; settings: in vivo
HCT-116 [26] = test: Cytotoxicity against human HCT-116 cells harboring KRAS G13D mutant cultured as 2D cells assessed as inhibition of cell proliferation incubated for 120 hrs by CellTiter-Glo luminescence assay; format: functional, cell-based
Mus musculus [27] = test: In vivo inhibition of MAPK signaling pathway in female BALB/c nude mouse xenografted with human MIA PaCa-2 cells harboring KRAS G12C/G12C mutant assessed as reduction in DUSP6 mRNA level in tumor at 3 to 10 mg/kg, po administered as single dose and measured upto 48 hrs by qPCR analysis; format: functional, organism-based; settings: dose 3-10 mg/kg
[28] = Half-life in male cynomolgus monkey at 1 mg/kg, iv measured after 24 hrs by LC-MS/MS analysis; format: ADME, organism-based, Macaca fascicularis; settings: in vivo
[29] = Oral bioavailability in male Beagle dog at 5 mg/kg measured after 24 hrs by LC-MS/MS analysis; format: ADME, organism-based, Canis lupus familiaris; settings: in vivo
[30] = Inhibition of 6His-tagged KRAS G12C mutant(1 to 169 residues)/GST-tagged GMPPNP-bound BRAF RBD (155 to 229 reisudes)/Cyclophilin A (unknown origin) tri-complex protein-protein interaction incubated for 3 hrs by TR-FERT based disruption assay; design: species or system Homo sapiens
[31] = Half-life in male Sprague-Dawley rat at 60 mg/kg, po measured after 24 hrs by LC-MS/MS analysis; format: ADME, organism-based; settings: in vivo
[32] = Metabolic stability in mouse liver microsomes assessed as half-life at 2 uM measured upto 60 mins in presence of NADPH by LC-MS/MS analysis; format: ADME, Microsome

- bioavailability [1]: 52%
- bioavailability [4]: 27%
- clearance [8]: 40 mL/min/kg
- half-life [10]: 2.2 h
- Tmax [13]: 4 h
- half-life [14]: 5.3 h
- EC50 [16]: 0.3 nM
- logD [21]: 4.5
- Vd [23]: 1.9 L/kg
- half-life [24]: 1.7 h
- clearance [25]: 8.33 mL/min/kg
- half-life [28]: 6.2 h
- bioavailability [29]: 33%
- IC50 [30]: 35 nM
- half-life [31]: 2.8 h
- half-life at 2 µM [32]: 1.13 h
Compound: CCn1c(-c2cc(N3CCN(C)CC3)cnc2[C@H](C)OC)c2c3cc(ccc31)-c1csc(n1)C[C@H](NC(=O)[C@H]1C[C@@H]1C)C(=O)N1CCC[C@H](N1)C(=O)OCC(C)(C)C2
- Activity (HPAF-II): Dose-dependent-effect
- Activity [2]: Non-toxic
- inhibition in vivo at 10 mg/kg [3]: 95%
- Activity (PSN1): Active
- Activity [5]: Non-toxic
- Activity [6]: Non-toxic
- Activity (SK-MEL-30 [7]): Active
- inhibition (HCT-116 [9]): Active
- Activity [11]: Non-toxic
- Activity [12]: Non-toxic
- EC50 (NCI-H358): 1 nM
- inhibition (Mus musculus [15]): Active
- Activity [17]: Non-toxic
- inhibition (SK-MEL-30 [18]): Active
- IC50 [19]: > 30000 nM
- inhibition in vivo at 3 mg/kg [20]: 93%
- Activity [22]: Non-toxic
- Activity (NCI-H441): Active
- Activity (HCT-116 [26]): Active
- inhibition (Mus musculus [27]): Not active; Pathway Reactivation Observed
